pIC50: −log10 of the molar value.
Biological target: T1, Recombinant human HSP90α (Homo sapiens, UniProt P07900)
T1 construct: host or cells: E. coli
Assay: radioligand filter binding test with [3H]17AAG (HSP90 inhibition)
Settings: competition with [3H]17AAG 0.08 μM; HSP90 1.5 μg/assay; 22° C., 30 min
Description: Test Method for the Measurement of HSP90 Inhibitors
The binding of geldanamycin or 17- allylamino-17-demethoxygeldanamycin (17AAG) to HSP90 and competitive inhibition thereof can be utilised in order to determine the inhibitory activity of the compounds according to the invention (Carreras et al. 2003, Chiosis et al. 2002).
In the specific case, a radioligand filter binding test is used. The radio-ligand used here is tritium-labelled 17-allylaminogeldanamycin, [3H]17AAG. This filter binding test allows a targeted search for inhibitors which interfere with the ATP binding site.
Recombinant human HSP90α (E. coli expressed, 95% purity);
[3H]17AAG (17-allylaminogeldanamycin, [allylamino-2,3-^3H. Specific activity: 1.11×10^12 Bq/mmol (Moravek, MT-1717);
HEPES filter buffer (50 mM HEPES, pH 7.0, 5 mM MgCl2, BSA 0.01%) Multiscreen FB (1 μm) filter plate (Millipore, MAFBNOB 50).
The 96-well microtitre filter plates are firstly irrigated and coated with 0.1% of polyethylenimine.
The test is carried out under the following conditions:
Reaction temperature 22° C.
Reaction time: 30 min., shaking at 800 rpm
50 mM HEPES HCI, pH 7.0, 5 mM MgCl2, 0.01% (w/v) BSA
At the end of the reaction, the supernatant in the filter plate is removed by suction with the aid of a vacuum manifold (Multiscreen Separation System, Millipore), and the filter is washed twice.
The filter plates are then measured in a beta counter (Microbeta, Wallac) with scintillator (Microscint 20, Packard).
“% of control” is determined from the “counts per minutes” values and the IC-50 value of a compound is calculated therefrom.

SMILES	pIC50
CN(Cc1ccccc1)C(=O)c1cc(-c2ccnn2-c2ccccc2Cl)c(O)cc1O [Compound A2, 5-[5-(N-Benzyl-N-methylaminocarbonyl)-2,4-dihydroxyphenyl]-1-(2-chlorophenyl)-1H-pyrazole]	7.36
Cc1ccccc1-n1nccc1-c1cc(C(=O)N(C)Cc2ccc(F)cc2)c(O)cc1O [Compound A5, 5-{5-[N-(4-Fluorobenzyl)-N-methylaminocarbonyl]-2,4-dihydroxyphenyl}-1-(2-methylphenyl)-1H-pyrazole]	7.37
Cc1ccccc1-n1nccc1-c1cc(C(=O)N(C)Cc2ccccc2F)c(O)cc1O [Compound A6, 5-{5-[N-(2-Fluorobenzyl)-N-methylaminocarbonyl]-2,4-dihydroxyphenyl}-1-(2-methylphenyl)-1H-pyrazole]	7.27
Cc1ccccc1-n1nccc1-c1cc(C(=O)N(C)Cc2cccc(F)c2)c(O)cc1O [Compound A7, 5-{5-[N-(3-Fluorobenzyl)-N-methylaminocarbonyl]-2,4-dihydroxyphenyl}-1-(2-methylphenyl)-1H-pyrazole]	7.52
COc1ccccc1CN(C)C(=O)c1cc(-c2ccnn2-c2ccccc2C)c(O)cc1O [Compound A9, 5-{5-[N-(2-Methoxybenzyl)-N-methylaminocarbonyl]-2,4-dihydroxyphenyl}-1-(2-methylphenyl)-1H-pyrazole]	7.40
Cc1ccccc1-n1nccc1-c1cc(C(=O)N(C)Cc2ccccc2)c(O)cc1O [Compound A17, 5-[5-(N-Benzyl-N-methylaminocarbonyl)-2,4-dihydroxyphenyl]-1-(2-methylphenyl)-1H-pyrazole]	7.48
Cc1ccccc1-n1nccc1-c1cc(C(=O)N(C)Cc2cccc(Br)c2)c(O)cc1O [Compound A20, 5-{5-[N-(3-Bromobenzyl)-N-methylaminocarbonyl]-2,4-dihydroxyphenyl}-1-(2-methylphenyl)-1H-pyrazole]	7.51
Cc1ccccc1CN(C)C(=O)c1cc(-c2ccnn2-c2ccccc2C)c(O)cc1O [Compound A23, 5-{5-[N-(2-Methylbenzyl)-N-methylaminocarbonyl]-2,4-dihydroxyphenyl}-1-(2-methylphenyl)-1H-pyrazole]	7.57
Cc1ccc(CN(C)C(=O)c2cc(-c3ccnn3-c3ccccc3C)c(O)cc2O)c(C)c1 [Compound A24, 5-{5-[N-(2,4-Dimethylbenzyl)-N-methylaminocarbonyl]-2,4-dihydroxyphenyl}-1-(2-methylphenyl)-1H-pyrazole]	7.70
Cc1ccccc1-n1nccc1-c1cc(C(=O)N(C)Cc2ccc3c(c2)OCO3)c(O)cc1O [Compound A25]	7.27
Cc1ccccc1-n1nccc1-c1cc(C(=O)N(C)Cc2c(F)cccc2Cl)c(O)cc1O [Compound A30, 5-{5-[N-(2-Chloro-6-fluorobenzyl)-N-methylaminocarbonyl]-2,4-dihydroxyphenyl}-1-(2-methylphenyl)-1H-pyrazole]	7.59
COc1ccc(CN(C)C(=O)c2cc(-c3ccnn3-c3ccccc3C)c(O)cc2O)c(OC)c1 [Compound A31, 5-{5-[N-(2,4-Dimethoxybenzyl)-N-methylaminocarbonyl]-2,4-dihydroxyphenyl}-1-(2-methylphenyl)-1H-pyrazole]	6.49
COc1ccc(Cl)cc1CN(C)C(=O)c1cc(-c2ccnn2-c2ccccc2C)c(O)cc1O [Compound A32, 5-{5-[N-(3-Chloro-6-methoxybenzyl)-N-methylaminocarbonyl]-2,4-dihydroxyphenyl}-1-(2-methylphenyl)-1H-pyrazole]	7.28
Cc1ccccc1-n1nccc1-c1cc(C(=O)N(C)Cc2ccc(Cl)cc2Cl)c(O)cc1O [Compound A35, 5-{5-[N-(2,4-Dichlorobenzyl)-N-methylaminocarbonyl]-2,4-dihydroxyphenyl}-1-(2-methylphenyl)-1H-pyrazole]	6.66
CN(Cc1ccccn1)C(=O)c1cc(-c2ccnn2-c2ccccc2Cl)c(O)cc1O [Compound A60, 5-{5-[N-(Pyridin-2-ylmethyl)-N-methylaminocarbonyl]-2,4-dihydroxyphenyl}-1-(2-chlorophenyl)-1H-pyrazole]	6.80
